Measured values published in patent publication US20030082610A1, “Use of a gene change in gene GNB3 coding for the B3 subunit of human G proteins” (SniP Biotech GmbH & Co. KG, priority 2001, published 2003).

Test: placebo-controlled clinical study on the gene-dependent (GNB3 C825T) effectiveness of Sibutramine for weight reduction
Format: in vivo, human
Procedure: A placebo-controlled clinical study on the gene-dependent effectiveness of Sibutramine was carried out. This study included 105 patients with a body-mass index between 30 and 40 kg/m^2. All patients received a reduced calorie diet of maximum 1500-2000 kcal per day. Moreover the patients were urged to increase their physical activity and for example to walk at least 30 minutes a day at an increased pace. Forty nine patients received 15 mg Sibutramine daily to support weight reduction, while 56 patients received a placebo. The therapy was continued for 54 weeks. The body weight and body size of all patients were known at the beginning of the study and after 54 weeks of therapy. The end points of the study were the weight loss after 54 weeks, the number of patients with at least 5% reduction in body weight, and the number of patients with at least 10% reduction of body weight.
From all patients, DNA was isolated from a blood sample in order to analyze the C825T allele status in gene GNB3. Genotyping was done by means of PCR reaction and restriction analysis in processes familiar to one skilled in the area. The study results are shown in the graph of FIG. 1. In the placebo group, the average weight reduction was 5.3±7.3 kg, while the weight loss in the group treated with Sibutramine was 10.0±8.7 kg. This difference was statistically significant (p=0.036). FIG. 1 illustrates the genotype-dependent weight loss. In the placebo group, the average weight reduction was 9.1±2.8 kg for the TT genotype, 7.4±1.5 kg for the TC genotype, but only 2.8±1.1 kg for the CC genotype. This difference was statistically significant (One-way ANOVA, P=0.03).

Compound: CC(C)CC(N(C)C)C1(c2ccc(Cl)cc2)CCC1 (stereo not shown) [Sibutramine]
- odds ratio (OR) for a 5% weight loss, Sibutramine compared to placebo (825T allele carriers, 54 weeks, p=0.26, not significant): 1.8
- odds ratio (OR) for a 10% weight loss, Sibutramine compared to placebo (825T allele carriers, 54 weeks, p=0.4): 1.6
- weight loss (CC genotype (825C allele carrier), 15 mg Sibutramine daily, 54 weeks): 9.9 kg
- odds ratio (OR) for a 5% weight reduction, long-term, Sibutramine versus placebo (CC genotype, re-examined 2 years after the end of the study, p=0.0358): 4.4
- further weight loss compared to placebo (TT/TC genotype (825T allele carriers), 15 mg Sibutramine daily, 54 weeks): no further weight loss compared to the placebo
- weight loss (average weight reduction) (all genotypes, patients BMI 30-40 kg/m^2, 15 mg Sibutramine daily plus reduced calorie diet and physical activity, after 54 weeks): 10.0 ± 8.7 kg
- effect of Sibutramine compared to placebo on weight loss (carriers of the 3882A allele and the 5249G allele): same favorable results as for the 825C allele carrier
- odds ratio (OR) for a 5% weight reduction, long-term, Sibutramine versus placebo (genotype not printed (contrasted with CC), 2 years after the end of the study, p 0.2139, not significant): 2.333
- odds ratio (OR) for losing more than 5% body weight, Sibutramine compared to placebo (homozygotic 825C allele carriers (CC genotype), 54 weeks, p 0.0002): 12.0
- odds ratio (OR) for the 10% weight reduction, Sibutramine compared to placebo (homozygotic 825C allele carriers (CC genotype), 54 weeks, p 0.0028): 9.69
